Data published in patent US20260207760A1, “COMBINATIONS OF CD33 ANTIBODY DRUG CONJUGATE WITH CHEMOTHERAPEUTIC AGENTS” (Glykos Biomedical Oy, priority 2022, published 2026).
Several values for one entry are separate records, joined by “and”; a condition that tells them apart may be missing. Equal values may be shown once. Where a name gives a salt, the structure may show the parent alone. Read-outs that look alike come from different tables or passages of the source.

How the values were obtained:
patient lymphocytes = assay: Ex vivo AML patient samples, viable lymphocytes by flow cytometry, 5-day assay; conditions: CD33-negative lymphocytes in AML patient samples, five days
Protocol: (§1) AML cells were rapidly thawed in a 37° C. water bath and treated with Denarase (250 U/μl). The cells were cultured in SFEM II medium ([…] Technologies) supplemented with 20 ng/ml SCF, 20 ng/ml TPO, and 20 ng/ml FLT3-L. The compounds were added the same day to 96-well conical bottom plates at seven different concentrations using an acoustic liquid handling device (Echo 550, Labcyte Inc), on top of 10 μl of culturing medium/well. A total of 100,000 cells were seeded per well in a volume of 100 μl. […] All antibodies were obtained from BD biosciences and used at a dilution of 1:100, except CD3 in 1:50. Following a 20-minute incubation with the antibodies, the cells were centrifuged, and 25 μl of Annexin-V and 7-AAD mixture, both diluted 1:50 in Annexin V binding buffer, were added to each well. After a 10-minute incubation, the total number of viable blasts (CD34 or CD117), lymphocytes (CD3) and CD33-positive cells in each well was counted using Forecyte software (Sartorius) and normalized to DMSO control containing wells.
(§2) The AML samples were exposed to LNAuM, lintuzumab, MMAU, or gemtuzumab ozogamicin (GO; Mylotarg, Pfizer) for five days, after which remaining viable blast and lymphocytes were quantified using flow cytometry. […] Subsequently, we assessed toxicity against lymphocytes (CD33-negative) in the same samples.

MOLM-13 cells [1] = assay: MOLM-13 cell mouse xenograft efficacy study; conditions: for toxicity in mice: clinical signs, general behavior, macroscopic changes in major organs; for Average tumor size / Tumor size of individual mice / TGI (average tumor size compared to Vehicle): day 15 after tumor inoculation, combination of the two; for Average tumor size / Tumor size of individual mice: LNAuM 0.3 mg/kg single dose i.v., venetoclax 100 mg/kg p.o. daily; for TGI (average tumor size compared to Vehicle): LNAuM 0.3 mg/kg single dose
patient blasts = assay: Ex vivo AML patient samples, viable blasts by flow cytometry, 5-day assay; format: cell-based, human; conditions: five days; for IC50: six AML patient samples, read-out: median IC50 (absolute) against blasts; for activity against blasts: AML patient samples
Protocol: as §1, §2

HL-60 cells = assay: Toxicity assay of chemotherapeutic agents, HL-60 cells (PrestoBlue viability); format: cell-based, human
Protocol: HL-60 cells (ATCC®, cat. no. CCL-240™), derived from human promyelocytic leukemia, were cultured in Iscove's Modified Dulbecco's Medium (Gibco, Life Technologies) supplemented with 20% heat inactivated FBS (Gibco, Life Technologies).
For toxicity assay, HL-60 cells were seeded for 7500 cells/well of 96-well plate. The chemotherapeutic agents were added as 2-fold stock solutions and incubated with cells for 5 days.
All other compounds were tested at concentrations 0.1, 1, 10, 100, 1000, and 10 000 nM. […] The percentage of viable cells was calculated by dividing the sample absorbance value with untreated cell control value and multiplying by 100%.
All compounds were tested at concentrations of 0.1-10 000 nM.
IC50 values were determined after average % and standard deviations were transferred to GraphPad Prism 9.1.2. Dose-response curves were generated and the IC50% values of the samples were obtained by non-linear regression analysis (Inhibitor vs. response, variable slope (four parameters)) using the software.

KG-1 cells = assay: Toxicity of chemotherapeutic agents, KG-1 cells (PrestoBlue viability); format: cell-based; conditions: 4 days
Protocol: Toxicity of chemotherapeutic agents was tested with high CD33-positive KG-1 cell line (DSMZ-German Collection of Microorganisms and Cell Cultures; Cat. No. ACC 14). KG-1 cells were seeded to non-treated 96-well plate 15000 cells/well and diluted compounds were added to cells in duplicates. Dilution series (1:10) of compounds were prepared starting from 20 μM to 0.2 nM and when added to cells they diluted 2× more. Cell control was untreated cells in culture medium.
Cells with chemotherapeutic agents were cultured for 4 days and then the viability was measured with PrestoBlue cell viability reagent according to the manufacturer's (Life Technologies) instructions. Results were calculated from 5-hour Prestoblue reaction and the percentage of viable cells was calculated by dividing the sample absorbance value with cell control value.

MOLM-13 cells [2] = assay: Toxicity assay of chemotherapeutic agents, MOLM-13 cells (PrestoBlue viability); format: cell-based, human; conditions: 4 days
Protocol: For toxicity assay, MOLM-13 cells were seeded for 10 000 cells/well of 96-well plate. The tested chemotherapeutic agents were added as 2-fold stock solutions and incubated in duplicate with cells for 4 days. The compounds were tested at concentrations 0.1, 1, 10, 100, 1000, and 10 000 nM. […] After 4 days incubation, the viability of the cells was determined with PrestoBlue Cell Viability Reagent (Life Technologies) according to the manufacturer's instructions. The percentage of viable cells was calculated by dividing the sample absorbance value with untreated cell control value and multiplying by 100%.

[3] = Homo sapiens, 120 h, HL-60 cells, 5 days incubation, read-out: IC50

In the case of “LNAuM: antibody-drug-conjugate (ADC) comprising the lintuzumab antibody, conjugated to MMAU, via a cleavable linker”, the “cytotoxic activity against lymphocytes” value (patient lymphocytes) is reported as “did not exhibit cytotoxic activity”, the “tumors disappeared and did not regrow during the whole study” value (MOLM-13 cells [1]; LNAuM single dose of 3 mg/kg) is reported as 6/6 and the “tumor growth versus control group” value (MOLM-13 cells [1]; all doses (LNAuM 0.1-3 mg/kg single dose; venetoclax 100 mg/kg, 10 daily doses)) is reported as “inhibited tumor growth”. The toxicity in mice (MOLM-13 cells [1]) was “no toxicity”, the Average tumor size (MOLM-13 cells [1]) was 201 mm^3 and the “Tumor size of individual mice” value (MOLM-13 cells [1]) was 204.723 mm^3 and 229.992 mm^3 and 239.704 mm^3 and 153.6 mm^3 and 106.624 mm^3 and 271.472 mm^3. For the same compound, the “TGI (average tumor size compared to Vehicle)” value (MOLM-13 cells [1]; venetoclax 100 mg/kg) was 0.46, the “outcome at study end” value (MOLM-13 cells [1]; day 54 after tumor inoculation, venetoclax 100 mg/kg, LNAuM 1 mg/kg, combination) was “two animals were sacrificed due to tumor growth, and in the rest of the animals there was a palpable tumor” and the IC50 (patient blasts) was 16 nM.

With Gilteritinib hemifumarate the IC50 (HL-60 cells; read-out: IC50) was 425 nM, the IC50 (KG-1 cells) was 1700 nM and the IC50 (MOLM-13 cells [2]) was 24 nM.

In the case of “lintuzumab: anti-CD33 antibody comprising the light chain of SEQ ID NO:1 and the heavy chain of SEQ ID NO:2”, the “cytotoxic activity against lymphocytes” value (patient lymphocytes) is reported as “did not exhibit cytotoxic activity”, the tumor growth inhibition (MOLM-13 cells [1]; lintuzumab naked antibody 10 mg/kg single dose, non-binding IgG1 ADC control 3 mg/kg single dose) is reported as “only modest tumor growth inhibition” and the activity against blasts (patient blasts) is reported as “modest or no activity”.

In the case of `CO[C@@H]1[C@H](N(C)C(=O)c2ccccc2)C[C@H]2O[C@]1(C)n1c3ccccc3c3c4c(c5c6ccccc6n2c5c31)C(=O)NC4` [Midostaurin], the IC50 (MOLM-13 cells [2]; Homo sapiens, 96 h) is reported as 14 nM.

With gemtuzumab ozogamicin [GO] the “cytotoxic activity against lymphocytes” value (patient lymphocytes) was “significant lymphocyte toxicity”, the IC50 (patient lymphocytes; read-out: median IC50 against lymphocytes) was 9 nM and the IC50 (patient blasts) was 0.3 nM.

`CC1(C)CCC(CN2CCN(c3ccc(C(=O)NS(=O)(=O)c4ccc(NCC5CCOCC5)c([N+](=O)[O-])c4)c(Oc4cnc5[nH]ccc5c4)c3)CC2)=C(c2ccc(Cl)cc2)C1` [Venetoclax] was tested, and the IC50 (HL-60 cells; [3]) was 112 nM, the toxicity in mice (MOLM-13 cells [1]) was “no toxicity” and the Average tumor size (MOLM-13 cells [1]) was 194 mm^3. The “Tumor size of individual mice” value (MOLM-13 cells [1]) was 134.946 mm^3 and 184.96 mm^3 and 249.64 mm^3 and 246.895 mm^3 and 122.793 mm^3 and 226.1475 mm^3, the “TGI (average tumor size compared to Vehicle)” value (MOLM-13 cells [1]; venetoclax 100 mg/kg) was 0.45 and the IC50 (KG-1 cells; Homo sapiens, 96 h) was 2300 nM. For the same compound, the IC50 (MOLM-13 cells [2]; Homo sapiens, 96 h) was 24 nM.

With `COc1cccc2c1C(=O)c1c(O)c3c(c(O)c1C2=O)C[C@@](O)(C(C)=O)C[C@@H]3O[C@H]1C[C@H](N)[C@H](O)[C@H](C)O1` [Daunorubicin-HCl] the IC50 (HL-60 cells; Homo sapiens, HL-60, 120 h) was 15 nM, the IC50 (KG-1 cells; Homo sapiens, 96 h) was 55 nM and the IC50 (MOLM-13 cells [2]; Homo sapiens, 96 h) was 13 nM.

`CCC(C)C(C(CC(=O)N1CCCC1C(OC)C(C)C(=O)NC(C)C(OC1OC(C(=O)O)C(O)C(O)C1O)c1ccccc1)OC)N(C)C(=O)C(NC(=O)C(NC)C(C)C)C(C)C` [MMAU, monomethylauristatin E β-D-glucuronide] was tested, and the “cytotoxic activity against lymphocytes” value (patient lymphocytes) was “did not exhibit cytotoxic activity” and the activity against blasts (patient blasts) was “modest or no activity”.

In the case of `Nc1ccn([C@@H]2O[C@H](CO)[C@@H](O)[C@@H]2O)c(=O)n1` [Cytarabine], the IC50 (HL-60 cells; [3]) is reported as 298 nM, the IC50 (KG-1 cells; Homo sapiens, 96 h) is reported as 230 nM and the IC50 (MOLM-13 cells [2]; Homo sapiens, 96 h) is reported as 112 nM.
